Reference: patent US7956077B2, “2-{-3,′2-(phenyl)-oxazol-4-ylmethoxyl-cyclohexyl methoxy}-propionic acid derivatives used as peroxisome proliferator-activated receptor (PPAR) ligands for the treatment of hyperlipidemia and diabetes” (Sanofi-Aventis Deutschland GmbH, priority 2004, dated 2011)
“And” between values parts separate entries of the source, which are not always exact repeats. Equal values may be shown once.

Experiments:
[1] = target: T1, human PPARalpha (Homo sapiens, UniProt Q07869); assay: Cellular PPARalpha assay (stably transfected HEK luciferase reporter cell line); assay type: cell-based; details: PPARalpha reporter cell line (HEK, GR-GAL4-humanPPARalpha-LBD), 24 h incubation
T1 construct: human PPARalpha receptor (amino acids S167-Y468); expressed in transfected cells; host or cells: HEK cells, stably transfected (pcDNA3 construct)
T1 sequence (Q07869 167-468): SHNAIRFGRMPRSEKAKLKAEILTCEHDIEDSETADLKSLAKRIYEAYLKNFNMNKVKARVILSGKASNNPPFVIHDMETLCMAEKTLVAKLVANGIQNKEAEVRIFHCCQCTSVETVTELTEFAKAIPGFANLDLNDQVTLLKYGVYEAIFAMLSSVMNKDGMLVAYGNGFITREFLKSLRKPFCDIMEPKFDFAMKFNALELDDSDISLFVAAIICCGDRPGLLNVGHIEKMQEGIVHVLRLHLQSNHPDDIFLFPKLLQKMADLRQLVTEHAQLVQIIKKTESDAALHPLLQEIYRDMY
Method: Determination of EC50 Values of PPAR Agonists in the Cellular PPARalpha Assay
The potency of substances which bind to human PPARalpha and activate it in an agonistic manner is analyzed using a stably transfected HEK cell line (HEK=human embryo kidney) which is referred to here as PPARalpha reporter cell line. It contains two genetic elements, a luciferase reporter element (pdeltaM-GAL4-Luc-Zeo) and a PPARalpha fusion protein (GR-GAL4-humanPPARalpha-LBD) which mediates expression of the luciferase reporter element depending on a PPARalpha ligand. The stably and constitutively expressed fusion protein GR-GAL4-humanPPARalpha-LBD binds in the cell nucleus of the PPARalpha reporter cell line via the GAL4 protein portion to the GAL4 DNA binding motifs 5′-upstream of the luciferase reporter element which is stably integrated in the genome of the cell line. There is only little expression of the luciferase reporter gene without addition of a PPARalpha ligand if fatty acid-depleted fetal calf serum (cs-FCS) is used in the assay. PPARalpha ligands bind and activate the PPARalpha fusion protein and thereby bring about expression of the luciferase reporter gene. The luciferase which is formed can be detected by means of chemiluminescence via an appropriate substrate.
Construction of the Cell Line
The PPARalpha reporter cell line was prepared in two steps. Firstly, the luciferase reporter element was constructed and stably transfected into HEK cells. For this purpose, five binding sites of the yeast transcription factor GAL4 (in each case 5′-CGGAGTACTGTCCTCCGAG-3′) were cloned in 5′-upstream of a 68 bp-long minimal MMTV promoter (Genbank Accession # V01175). The minimal MMTV promoter section contains a CCAAT box and a TATA element in order to enable efficient transcription by RNA polymerase II. The cloning and sequencing of the GAL4-MMTV construct took place in analogy to the description of Sambrook J. et. al. (Molecular cloning, Cold Spring Harbor Laboratory Press, 1989). Then the complete Photinus pyralis luciferase gene (Genbank Accession # M15077) was cloned in 3′-downstream of the GAL4-MMTV element. After sequencing, the luciferase reporter element consisting of five GAL4 binding sites, MMTV promoter and luciferase gene was subcloned into a plasmid which confers zeozin resistance in order to obtain the plasmid pdeltaM-GAL4-Luc-Zeo. This vector was transfected into HEK cells in accordance with the statements in Ausubel, F. M. et al. (Current protocols in molecular biology, Vol. 1-3, John Wiley & Sons, Inc., 1995).
In a second step, the PPARalpha fusion protein (GR-GAL4-humanPPARalpha-LBD) was introduced into the stable cell clone described. For this purpose, initially the cDNA coding for the N-terminal 76 amino acids of the glucocorticoid receptor (Genbank Accession # P04150) was linked to the cDNA section coding for amino acids 1-147 of the yeast transcription factor GAL4 (Genbank Accession # P04386). The cDNA of the ligand-binding domain of the human PPARalpha receptor (amino acids S167-Y468; Genbank Accession # S74349) was cloned in at the 3′ end of this GR-GAL4 construct. The fusion construct prepared in this way (GR-GAL4-humanPPARalpha-LBD) was subcloned into the plasmid pcDNA3 (from Invitrogen) in order to enable constitutive expression therein by the cytomegalovirus promoter. This plasmid was linearized with a restriction endonuclease and stably transfected into the previously described cell clone containing the luciferase reporter element. The finished PPARalpha reporter cell line which contains a luciferase reporter element and constitutively expresses the PPARalpha fusion protein (GR-GAL4-humanPPARalpha-LBD) was isolated by selection with zeozin (0.5 mg/ml) and G418 (0.5 mg/ml).
The activity of PPARalpha agonists is determined in a 3-day assay which is described below: […]

[2] = target: T2, human PPARgamma (Homo sapiens, UniProt P37231); assay: Cellular PPARgamma assay (transiently transfected HEK cells, luciferase reporter); assay type: cell-based; details: HEK cells transiently transfected with GAL4-humanPPARgammaLBD, 48 h incubation
T2 construct: human PPARgamma receptor (amino acids 1152-Y475); expressed in transfected cells; host or cells: HEK cells, transiently transfected with pcDNA3-GAL4-humanPPARgammaLBD
T2 sequence (P37231 182-477 isoform P37231-2 limits assumed): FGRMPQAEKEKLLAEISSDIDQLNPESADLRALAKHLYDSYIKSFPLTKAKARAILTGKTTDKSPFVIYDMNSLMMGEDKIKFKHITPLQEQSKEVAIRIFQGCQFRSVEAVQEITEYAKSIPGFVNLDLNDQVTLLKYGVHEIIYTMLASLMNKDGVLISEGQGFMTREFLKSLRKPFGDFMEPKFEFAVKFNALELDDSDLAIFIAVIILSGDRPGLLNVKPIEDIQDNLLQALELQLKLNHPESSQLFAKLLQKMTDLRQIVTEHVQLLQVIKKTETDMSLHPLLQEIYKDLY
From the text: Determination of EC50 Values of PPAR Agonists in the Cellular PPARgamma Assay
A transient transfection system is employed to determine the cellular PPARgamma activity of PPAR agonists. It is based on the use of a luciferase reporter plasmid (pGL3basic-5×GAL4-TK) and of a PPARgamma expression plasmid (pcDNA3-GAL4-humanPPARgammaLBD). Both plasmids are transiently transfected into human mbryonic kidney cells (HEK cells). There is then expression in these cells of the usion protein GAL4-humanPPARgammaLBD which binds to the GAL4 binding sites of he reporter plasmid. In the presence of a PPARgamma-active ligand, the activated usion protein GAL4-humanPPARgammaLBD induces expression of the luciferase reporter gene, which can be detected in the form of a chemiluminescence signal after addition of a luciferase substrate. As a difference from the stably transfected PPARalpha reporter cell line, in the cellular PPARgamma assay the two components (luciferase reporter plasmid and PPARgamma expression plasmid) are transiently transfected into HEK cells because stable and permanent expression of the PPARgamma fusion protein is cytotoxic.
Construction of the Plasmids
The luciferase reporter plasmid pGL3basic-5×GAL4-TK is based on the vector pGL3basic from Promega. The reporter plasmid is prepared by cloning five binding sites of the yeast transcription factor GAL4 (each binding site with the sequence 5′-CTCGGAGGACAGTACTCCG-3′), together with a 160 bp-long thymidine kinase promoter section (Genbank Accession # AF027128) 5′-upstream into pGL3basic. 3′-downstream of the thymidine kinase promoter is the complete luciferase gene from Photinus pyralis (Genbank Accession # M15077), which is already a constituent of the plasmid pGL3basic used. The cloning and sequencing of the reporter plasmid pGL3basic-5×GAL4-TK took place in analogy to the description in Sambrook J. et. al. (Molecular cloning, Cold Spring Harbor Laboratory Press, 1989).
The PPARgamma expression plasmid pcDNA3-GAL4-humanPPARgammaLBD was prepared by first cloning the cDNA coding for amino acids 1-147 of the yeast transcription factor GAL4 (Genbank Accession # P04386) into the plasmid pcDNA3 (from Invitrogen) 3′-downstream of the cytomegalovirus promoter. Subsequently, the cDNA of the ligand-binding domain (LBD) of the human PPARgamma receptor (amino acids 1152-Y475; Accession # g1480099) 3′-downstream of the GAL4 DNA binding domain was cloned. Cloning and sequencing of the PPARgamma expression plasmid pcDNA3-GAL4-humanPPARgammaLBD again took place in analogy to the description in Sambrook J. et. al. (Molecular cloning, Cold Spring Harbor Laboratory Press, 1989). Besides the luciferase reporter plasmid pGL3basic-5×GAL4-TK and the PPARgamma expression plasmid pcDNA3-GAL4-humanPPARgammaLBD, also used for the cellular PPARgamma assay are the reference plasmid pRL-CMV (from Promega) and the plasmid pBluescript SK(+) from Stratagene. All four plasmids were prepared using a plasmid preparation kit from Qiagen, which ensured a plasmid quality with a minimal endotoxin content, before transfection into HEK cells.
The activity of PPARgamma agonists is determined in a 4-day assay which is described below. Before the transfection, HEK cells are cultivated in DMEM medium (#41965-039, Invitrogen) which is mixed with the following additions: 10% FCS (#16000-044, Invitrogen), 1% penicillin-streptomycin solution (#15140-122, Invitrogen) and 2 mM L-glutamine (#25030-024, Invitrogen).
Firstly, solution A, a transfection mixture which contains all four plasmids previously described in addition to DMEM medium, is prepared. […]

SMILES	EC50 [1]	EC50 [2] [nM]
CCCC(C)(OC[C@@H]1CCC[C@H](OCc2nc(-c3ccc(CC(C)C)cc3)oc2CC)C1)C(=O)O (mixture of isomers) [Example 12, 2-{(1R,3S)-3-[5-Ethyl-2-(4-isobutylphenyl)oxazol-4-ylmethoxy]cyclohexylmethoxy}-2-methylpentanoic acid]	12 nM	75
CCCC(C)(OC[C@@H]1CCC[C@H](OCc2nc(-c3ccc4ccccc4c3)oc2CC)C1)C(=O)O (mixture of isomers) [Example 13, 2-{(1R,3S)-3-[5-Ethyl-2-(naphth-2-yl)oxazol-4-ylmethoxy]cyclohexylmethoxy}-2-methylpentanoic acid]	6.6 nM	130
CCCC(C)(OC[C@@H]1CCC[C@H](OCc2nc(-c3ccc(C(C)C)cc3)oc2CC)C1)C(=O)O (mixture of isomers) [Example 14, 2-{(1R,3S)-3-[5-Ethyl-2-(4-isopropylphenyl)oxazol-4-ylmethoxy}cyclohexylmethoxy]-2-methylpentanoic acid]	0.38 nM and 0.53 nM	
CCCC(C)(OC[C@@H]1CCC[C@H](OCc2nc(-c3ccc4ccccc4c3)oc2C)C1)C(=O)O (mixture of isomers) [Example 15, 2-Methyl-2-{(1R,3S)-3-[5-methyl-2-(naphth-2-yl)oxazol-4-ylmethoxy]-cyclohexylmethoxy}pentanoic acid]	0.39 nM	160
CCc1oc(-c2cccc(OC)c2)nc1CO[C@H]1CCC[C@@H](COC(C)(Cc2ccccc2)C(=O)O)C1 (mixture of isomers) [Example 16, 2-{(1R,3S)-3-[5-Ethyl-2-(3-methoxyphenyl)oxazol-4-ylmethoxy]cyclohexylmethoxy}-2-methyl-3-phenylpropionic acid]	17 nM	400
CCc1oc(-c2ccc(C)cc2)nc1CO[C@H]1CCC[C@@H](COC(C)(Cc2ccccc2)C(=O)O)C1 (mixture of isomers) [Example 17, 2-[(1R,3S)-3-(5-Ethyl-2-p-tolyloxazol-4-ylmethoxy)cyclohexylmethoxy]-2-methyl-3-phenylpropionic acid]	0.16 nM	510
CCc1oc(-c2ccc3ccccc3c2)nc1CO[C@H]1CCC[C@@H](COC(C)(Cc2ccccc2)C(=O)O)C1 (mixture of isomers) [Example 19, 2-{(1R,3S)-3-[5-Ethyl-2-(naphth-2-yl)oxazol-4-ylmethoxy]cyclohexylmethoxy}-2-methyl-3-phenylpropionic acid]	0.38 nM	540
CCc1oc(-c2ccc(C(C)C)cc2)nc1CO[C@H]1CCC[C@@H](COC(C)(Cc2ccccc2)C(=O)O)C1 (mixture of isomers) [Example 20, 2-{(1R,3S)-3-[5-Ethyl-2-(4-isopropylphenyl)oxazol-4-ylmethoxy]cyclohexylmethoxy}-2-methyl-3-phenylpropionic acid]	0.54 nM	170

The remaining lines, values ahead:

EC50 [1]	EC50 [2] [nM]	SMILES
54 nM	130	CCCC(C)(OC[C@@H]1CCC[C@H](OCc2nc(-c3cccc(OC)c3)oc2CC)C1)C(=O)O (mixture of isomers) [Example 10, 2-{(1R,3S )-3-[5-Ethyl-2-(3-methoxyphenyl)oxazol-4-ylmethoxy]cyclohexylmethoxy}-2-methylpentanoic acid]
4.1 nM	870	CCCC(C)(OC[C@@H]1CCC[C@H](OCc2nc(-c3ccc(C)cc3)oc2CC)C1)C(=O)O (mixture of isomers) [Example 11, 2-[(1R,3S)-3-(5-Ethyl-2-p-tolyloxazol-4-ylmethoxy)cyclohexylmethoxy]-2-methyl-pentanoic acid]
2.6 nM	150	CCc1oc(-c2ccc(CC(C)C)cc2)nc1CO[C@H]1CCC[C@@H](COC(C)(Cc2ccccc2)C(=O)O)C1 (mixture of isomers) [Example 18, 2-{(1R,3S)-3-[5-Ethyl-2-(4-isobutylphenyl)oxazol-4-ylmethoxy]cyclohexylmethoxy}-2-methyl-3-phenylpropionic acid]
	> 10000	Cc1ccc(-c2nc(CO[C@H]3CCC[C@@H](COC(C)(C)C(=O)O)C3)c(C)o2)cc1 [*]
